Laboratory results reported in patent publication EP1182208A2, “Composition for DNA transfection” (Roche Diagnostics GmbH, priority 2000, dated 2002).

Key:
HEK293-EBNA cells [1] = assay: Influence of antibiotics on transient transfection in HL medium, luciferase expression (Example 13); type: cell-based, Human; details: control without = 100, compound from Example 2 and PEI
Procedure: 1 mg of the compound from Example 2 was dissolved in 0.5 ml acetonitrile, mixed for 3-5 minutes at 37 °C, diluted in 0.5 ml sterile, pure water (1 mg/ml) and stored at 4 °C. 90 mg polyethelenimine (PEI), with a molecular weight of 25 kDa, were dissolved in sterile, pure water (0.9 mg/ml), neutralized with HCl, sterile filtered and stored at 4 °C. 3 µl of a plasmid solution (1 mg/ml) encoding the luciferase gene was added to 1.5 ml HL medium (containing 0.3% Primatone RL) and mixed. After 2 minutes incubation at room temperature, 2.25 µl of the compound from Example 2 (1mg/ml) was added and mixed, followed by 8.3 µl PEI (0.9 mg/ml). After mixing and incubation for 15-30 minutes at room temperature, the mixture was transferred into 15 ml of HEK293-EBNA cells containing different antibiotics. Cells which were grown in serum-free suspension culture in HL medium (containing 0.3% Primatone RL and different antibiotics) were transferred into fresh HL medium (containing 0.3% Primatone RL and different antibiotics), then adjusted to 5.5-6 x 10^6 cells/ml before adding the DNA complexes. The luciferase activity was measured in the soluble cell extract after 20-22 hours incubation time and expressed as relative light units per ml culture.

HEK293-EBNA cells [2] = assay: Effect of various compounds on DNA complex formation in DMEM/HAM F12 medium, luciferase expression (Example 11); type: cell-based, Human
Procedure: 1 mg of the compound from Example 2 was dissolved in 0.5 ml acetonitrile, mixed for 3-5 minutes at 37 °C, diluted in 0.5 ml sterile, pure water (1 mg/ml) and stored at 4 °C. 90 mg polyethelenimine (PEI), with a molecular weight of 25 kDa, were dissolved in sterile, pure water (0.9 mg/ml), neutralized with HCl, sterile filtered and stored at 4 °C.
Different growth promotion compounds were added to 1.5 ml DMEM/HAM F12 medium (without any compounds) and mixed. After 2-3 minutes, 3 µl of a plasmid solution (1 mg/ml) encoding the luciferase gene was added to the 1.5 ml […] and mixed. After 2 minutes incubation at room temperature, 2.25 µl of the compound from Example 2 (1mg/ml) was added and mixed, followed by 8.3 µl PEI (0.9 mg/ml). After mixing and incubation for 15-30 minutes at room temperature, the mixture was transferred into 15 ml of HEK293-EBNA cells. Cells which were grown in serum-free suspension culture in HL medium (containing 0.3% Primatone RL) were transferred into fresh HL medium (containing 0.3% Primatone RL) then adjusted to 5.5-6 x 10^6 cells/ml before adding the DNA complexes. The luciferase activity was measured in the soluble cell extract after 20-22 hours incubation time and expressed as relative light units per ml culture. […]

HEK293-EBNA cells [3] = assay: Transient transfection of HEK293-EBNA cells in serum-free suspension culture, expression of soluble TNF receptor p55 (Example 3); type: cell-based, Human
Procedure: (§1) 1 mg of the compound obtained in Example 2 was dissolved in 500 µl acetonitrile, diluted in 500 µl sterile pure water (1 mg/ml) and stored at 4 °C. 15 µl of a plasmid solution (1 mg/ml) encoding the soluble human tumor necrosis factor receptor p55 gene was transferred into 1.5 ml medium and mixed. Various amounts of the compound obtained in […] was added, mixed and after 10 minutes at room temperature, the mixture was transferred to 15 ml HEK293-EBNA cells in suspension.

Glioma C6 = assay: Luciferase transfection efficiency, serum-free suspension culture (Example 5); type: cell-based; details: soluble cell extract after 24 hours
Procedure: (§2) 1 mg of the compound obtained in Example 2 was dissolved in 500 µl sterile pure water (1 mg/ml) and stored at 4 °C. 90 mg polyethyleneimine, with a molecular weight of 25 kDa, was dissolved in sterile pure water (0.9 mg/ml), neutralized with HCl, sterile filtered and stored at room temperature.
(§3) 3 µl of a plasmid solution (1 mg/ml) encoding the luciferase gene was diluted in 1.5 ml culture medium and mixed. 2.25 µl compound (1 mg/ml) as described in Example 2 was added, mixed and followed by 8.3 µl PEI (0.9 mg/ml). After mixing and incubation for 10 minutes at room temperature, the mixture was transferred into 15 ml of various cells. Cells which were grown in serum-free suspension culture were transferred into fresh medium before adding the complexes. The luciferase activity was measured in the soluble cell extract after 24 hours incubation and expressed as relative light unit (RLU) per milligram protein.

BHK 21 Cl = assay: as above; type: cell-based; details: soluble cell extract after 24 hours
Procedure: as §2, §3

CHO dhfr- = assay: as above; type: cell-based; details: soluble cell extract after 24 hours
Procedure: as §2, §3

HEK293 = assay: as above; type: cell-based, Human; details: soluble cell extract after 24 hours
Procedure: as §2, §3

HEK293-EBNA = assay: as above; type: cell-based, Human; details: soluble cell extract after 24 hours
Procedure: as §2, §3

[4] = Cell viability of transfected HEK293-EBNA cells in serum-free suspension culture (Example 3); type: cell-based, Human; details: human, HEK293-EBNA cells in suspension, serum-free suspension culture
Procedure: as §1

HEK293-EBNA cells [5] = assay: as above; type: cell-based, Human; details: compound-mediated transfection; serum-free suspension culture of HEK293-EBNA cells
Procedure: as §1

C[C@H]1c2cccc(O)c2C(=O)C2=C(O)[C@]3(O)C(=O)C(C(N)=O)=C(O)[C@@H](N(C)C)[C@@H]3[C@@H](O)[C@@H]21 [Doxycycline]
Luciferase activity (HEK293-EBNA cells [1]; antibiotic 2 µg/ml in HL medium with Primatone RL (0.3%)): 89%

CN[C@@H]1[C@@H](O)[C@@H](O[C@@H]2[C@@H](O)[C@H](O[C@H]3O[C@H]([C@@H](C)O)[C@@H](O)[C@H](O)[C@H]3N)[C@@H](N)C[C@H]2N)OC[C@]1(C)O [Geneticin (G-418), Geneticin]
Luciferase activity (HEK293-EBNA cells [1]; antibiotic 250 µg/ml in HL medium with Primatone RL (0.3%)): 93%

NC(=O)CC[C@H](N)C(=O)O [Glutamine 200 mM, Glutamine]
% Increase (HEK293-EBNA cells [2]; additive 1:100, Primatone RL was set as 100 %): 13%
Luciferase activity (HEK293-EBNA cells [2]; additive dilution 1:100 in DMEM/HAM F12, compound from Example 2 and PEI): 1.06 RLU x 10^9/ml

Gentamycin
Luciferase activity (HEK293-EBNA cells [1]; antibiotic 50 µg/ml in HL medium with Primatone RL (0.3%)): 80%

CCCCCCCC/C=C\CCCCCCCC(=O)OC[C@H](COP(=O)(O)OCCNC(=O)CCSSC[C@@H](NC(=O)[C@H](NC(=O)CNC(=O)[C@@H](C)NC(=O)[C@H](NC(=O)[C@@H](CC(C)C)NC(=O)[C@@H](CCCCN)NC(=O)[C@H](NC(=O)[C@@H](CC(C)C)NC(=O)[C@H](NC(=O)[C@H](NC(=O)CNC(=O)[C@@H](CC(C)C)NC(=O)[C@H]1CCCN1C(=O)[C@@H](C)NC(=O)[C@@H](CC(C)C)NC(=O)[C@H](NC(=O)[C@@H](CO)NC(=O)[C@@H](Cc1c[nH]c2ccccc12)NC(=O)[C@H](NC(=O)[C@@H](CCCCN)NC(=O)[C@@H](CCCNC(=N)N)NC(=O)[C@@H](CCCCN)NC(=O)[C@@H](CCCNC(=N)N)NC(=O)[C@@H](CCC(N)=O)NC(=O)[C@H](N)CCC(N)=O)[C@H](C)CC)[C@H](C)CC)[C@H](C)O)[C@H](C)O)C(C)C)C(C)C)[C@H](C)CC)C(N)=O)OC(=O)CCCCCCC/C=C\CCCCCCCC [Compound, retro-inverso dioleylmelittin]
TNFRp55 (HEK293-EBNA cells [3]; Compound 1 µg/ml): 0.1 ng/mL
TNFRp55 (HEK293-EBNA cells [3]; Compound 2 µg/ml): 0.2 ng/mL
TNFRp55 (HEK293-EBNA cells [3]; Compound 4 µg/ml): 2.5 ng/mL
TNFRp55 (HEK293-EBNA cells [3]; Compound 6 µg/ml): 6.3 ng/mL
TNFRp55 (HEK293-EBNA cells [3]; Compound 10 µg/ml): 83 ng/mL
Luciferase activity (Glioma C6): 5.8 x 10^6 RLU/mg protein
Luciferase activity (BHK 21 Cl): 5.2 x 10^5 RLU/mg protein
Luciferase activity (CHO dhfr-): 1.4 x 10^6 RLU/mg protein
Luciferase activity (HEK293): 1.8 x 10^6 RLU/mg protein
Luciferase activity (HEK293-EBNA): 2.2 x 10^6 RLU/mg protein
viability at 1 µg/mL ([4]; Compound 1 µg/ml): 90 to 95%
viability at 2 µg/mL ([4]; Compound 2 µg/ml): 90 to 95%
viability at 4 µg/mL ([4]; Compound 4 µg/ml): 90 to 95%
viability at 6 µg/mL ([4]; Compound 6 µg/ml): 90 to 95%
viability at 10 µg/mL ([4]; Compound 10 µg/ml): 90 to 95%
cell toxicity effects (HEK293-EBNA cells [5]): absence of detectable cell toxicity effects
